Experimental findings from patent US12678471B2 (priority 2022, dated 2026) are described below.

The test system of the data set is ACE2-293T cells. The settings on record: for Cell viability (%): 10 μM, 24 hours, ACE2-293T cells, vehicle group = 100%, mean ± SD (n = 3); for Cytotoxicity to ACE2-293T cells (result in words): dose of 10 μM.

Turning to `COc1cc2c3cc1Oc1c(O)c(OC)cc4c1[C@@H](Cc1ccc(O)c(c1)Oc1ccc(cc1)C[C@@H]3N(C)CC2)N(C)CC4` [Obamegine], the “Cell viability (%)” value came to 98.19 ± 1.11% and the “Cytotoxicity to ACE2-293T cells (result in words)” value is recorded as “caused no harms to the ACE2-293T cells”.
With Bersavine, the “Cell viability (%)” value is 95.42 ± 2.33% and the “Cytotoxicity to ACE2-293T cells (result in words)” value was “caused no harms to the ACE2-293T cells”.
The like results for `COc1cc2c3cc1Oc1c(OC)c(OC)cc4c1[C@@H](Cc1ccc(O)c(c1)Oc1ccc(cc1)C[C@@H]3N(C)CC2)N(C)CC4` [Berbamine] were, in that order, 98.15 ± 3.04% and “caused no harms to the ACE2-293T cells”.
